Results published in patent US20230079714A1, “1-AMINO-1-CYCLOPROPANECARBOXYLIC ACID FOR THINNING OF FRUITS” (priority 2021, published 2023).

Experiments:
Format in all cases: in vivo
GlenGlo Peach trees [1] = experiment: Peach tree thinning trial, fruit set (Coloma, Mich., 2018); details: for reduced fruit set over control: pink bud stage, vs surfactant only control
Description: (§1) Thinning trials were conducted in Coloma, Mich. in May 2018. Specifically, 1-amino-1-cyclopropanecarboxylic acid was prepared at 300 and 600 ppm ACC solutions with 0.05% 2-butoxyethanol, poloxalene, monopropylene glycol as a surfactant. These solutions were applied as a foliar spray to GlenGlo Peach trees at pink bud stage, full bloom and after petal fall. Three one year-old shoots were flagged for each treatment on eight replicate trees. Fruit and defoliation were evaluated four weeks after bloom applications and two weeks after the post-petal fall application. […] Thinning activity is expressed as fruit set (the number of large fruit per 100 flowers).

GlenGlo Peach trees [2] = experiment: Peach tree thinning trial, foliage quality rating; details: for Foliage Rating: 1 is the best and 3 is the worst
Description: as §1

peach trees = experiment: Thinning trials Greece, Italy and Spain 2020, fruit set, peach sites; details: pink bud stage
Description: (§2) Thinning trials were conducted Greece, Italy and Spain in 2020. Specifically, 1-amino-1-cyclopropanecarboxylic acid was prepared at 200, 300, 400, 500, 800 and 1,000 ppm ACC solutions. These solutions were applied as a foliar spray to peach trees (i.e. Spain North, Spain South #1 and Greece #2) and nectarine trees (i.e. Spain South #1 and Greece #1) at pink bud stage. […] Thinning activity is expressed as fruit set (the number of large fruit per 100 flowers).

nectarine trees = experiment: Thinning trials Greece, Italy and Spain 2020, fruit set, nectarine sites; details: pink bud stage
Description: Thinning trials were conducted Greece, Italy and Spain in 2020. Specifically, 1-amino-1-cyclopropanecarboxylic acid was prepared at 200, 300, 400, 500, 800 and 1,000 ppm ACC solutions. These solutions were applied as a foliar spray to peach trees (i.e. […]

[3] = system: peach and nectarine trees; experiment: Thinning trials Greece, Italy and Spain 2020, fruit set, Italy site and average of all sites; details: pink bud stage; for % Fruit Set (Avg): average of sites; for reduced fruit set on average over control: vs untreated control
Description: as §2

[4] = system: plum trees (Candy Stripe and Black Majesty); experiment: Plum tree thinning trial, fruit set (Chile, 2020); details: for % Fruit Set 'Black Majesty': Black Majesty plum; for % Fruit set 'Candy Stripe': Candy Stripe plum; for % Fruit Set (Avg): average of two varieties; for reduced fruit set on average over control: white bud stage, vs untreated control
Description: Thinning trials were conducted Chile in 2020. Specifically, 1-amino-1-cyclopropanecarboxylic acid was prepared at 300 and 450 ppm ACC solutions. These solutions were applied as a foliar spray to two separate varieties of plum trees (i.e. Candy Stripe and Black Majesty) at the white bud stage, the full bloom stage or the petal fall stage. […] Thinning activity is expressed as fruit set (the number of large fruit per 100 flowers).

NC1(C(=O)O)CC1 [ACC, 1-amino-1-cyclopropanecarboxylic acid]
% Fruit Set (GlenGlo Peach trees [1]; 300 ppm ACC foliar spray, After Petal Fall): 57% | % Fruit Set (GlenGlo Peach trees [1]; 300 ppm ACC foliar spray, Full Bloom): 10% | % Fruit Set (GlenGlo Peach trees [1]; 300 ppm ACC foliar spray, Pink Bud Stage): 10% | reduced fruit set over control (GlenGlo Peach trees [1]; 300 ppm): 310% | % Fruit Set (GlenGlo Peach trees [1]; 600 ppm ACC foliar spray, After Petal Fall): 45% | % Fruit Set (GlenGlo Peach trees [1]; 600 ppm ACC foliar spray, Full Bloom): 1% | % Fruit Set (GlenGlo Peach trees [1]; 600 ppm ACC foliar spray, Pink Bud Stage): 6% | reduced fruit set over control (GlenGlo Peach trees [1]; 600 ppm): 583% | thinning activity (GlenGlo Peach trees [1]; application after petal fall): did not provide effective thinning activity | Foliage Rating (GlenGlo Peach trees [2]; 300 ppm ACC, After Petal Fall): 1.86 | Foliage Rating (GlenGlo Peach trees [2]; 300 ppm ACC, Full Bloom): 2.10 | Foliage Rating (GlenGlo Peach trees [2]; 300 ppm ACC, Pink Bud Stage): 1.52 | Foliage Rating (GlenGlo Peach trees [2]; 600 ppm ACC, After Petal Fall): 1.90 | Foliage Rating (GlenGlo Peach trees [2]; 600 ppm ACC, Full Bloom): 2.67 | Foliage Rating (GlenGlo Peach trees [2]; 600 ppm ACC, Pink Bud Stage): 1.95 | foliage quality (GlenGlo Peach trees [2]; application at the pink bud stage): did not significantly reduce foliage quality | % Fruit Set (Greece #2) (peach trees; 200 ppm ACC): 33% | % Fruit Set (Spain North) (peach trees; 200 ppm ACC): 50% | % Fruit Set (Spain South#1) (peach trees; 200 ppm ACC): 55% | % Fruit Set (Greece #2) (peach trees; 300 ppm ACC): 32% | % Fruit Set (Spain North) (peach trees; 300 ppm ACC): 44% | % Fruit Set (Spain South#1) (peach trees; 300 ppm ACC): 46% | % Fruit Set (Greece #2) (peach trees; 400 ppm ACC): 28% | % Fruit Set (Spain North) (peach trees; 400 ppm ACC): 33% | % Fruit Set (Spain South#1) (peach trees; 400 ppm ACC): 39% | % Fruit Set (Greece #2) (peach trees; 500 ppm ACC): 28% | % Fruit Set (Spain North) (peach trees; 500 ppm ACC): 25% | % Fruit Set (Spain South#1) (peach trees; 500 ppm ACC): 42% | % Fruit Set (Greece #2) (peach trees; 800 ppm ACC): 23% | % Fruit Set (Spain North) (peach trees; 800 ppm ACC): 7% | % Fruit Set (Spain South#1) (peach trees; 800 ppm ACC): 31% | % Fruit Set (Greece #2) (peach trees; 1,000 ppm ACC): 21% | % Fruit Set (Spain North) (peach trees; 1,000 ppm ACC): 7% | % Fruit Set (Spain South#1) (peach trees; 1,000 ppm ACC): 32% | % Fruit Set (Greece #1) (nectarine trees; 200 ppm ACC): 37% | % Fruit Set (Spain South #2) (nectarine trees; 200 ppm ACC): 55% | % Fruit Set (Greece #1) (nectarine trees; 300 ppm ACC): 32% | % Fruit Set (Spain South #2) (nectarine trees; 300 ppm ACC): 55% | % Fruit Set (Greece #1) (nectarine trees; 400 ppm ACC): 28% | % Fruit Set (Spain South #2) (nectarine trees; 400 ppm ACC): 48% | % Fruit Set (Greece #1) (nectarine trees; 500 ppm ACC): 25% | % Fruit Set (Spain South #2) (nectarine trees; 500 ppm ACC): 45% | % Fruit Set (Greece #1) (nectarine trees; 800 ppm ACC): 19% | % Fruit Set (Spain South #2) (nectarine trees; 800 ppm ACC): 37% | % Fruit Set (Greece #1) (nectarine trees; 1,000 ppm ACC): 16% | % Fruit Set (Spain South #2) (nectarine trees; 1,000 ppm ACC): 37% | % Fruit Set (Italy) ([3]; 200 ppm ACC): 33% | % Fruit Set (Avg) ([3]; 200 ppm ACC): 44% | reduced fruit set on average over control ([3]; 200 ppm): 18% | % Fruit Set (Italy) ([3]; 300 ppm ACC): 32% | % Fruit Set (Avg) ([3]; 300 ppm ACC): 40% | reduced fruit set on average over control ([3]; 300 ppm): 30% | % Fruit Set (Italy) ([3]; 400 ppm ACC): 34% | % Fruit Set (Avg) ([3]; 400 ppm ACC): 35% | reduced fruit set on average over control ([3]; 400 ppm): 49% | % Fruit Set (Italy) ([3]; 500 ppm ACC): 32% | % Fruit Set (Avg) ([3]; 500 ppm ACC): 33% | reduced fruit set on average over control ([3]; 500 ppm): 58% | % Fruit Set (Italy) ([3]; 800 ppm ACC): 32% | % Fruit Set (Avg) ([3]; 800 ppm ACC): 25% | reduced fruit set on average over control ([3]; 800 ppm): 108% | % Fruit Set (Italy) ([3]; 1,000 ppm ACC): 31% | % Fruit Set (Avg) ([3]; 1,000 ppm ACC): 24% | reduced fruit set on average over control ([3]; 1,000 ppm): 117% | % Fruit Set 'Black Majesty' ([4]; 300 ppm ACC, Full Bloom Stage): 9% | % Fruit set 'Candy Stripe' ([4]; 300 ppm ACC, Full Bloom Stage): 4% | % Fruit Set (Avg) ([4]; 300 ppm ACC, Full Bloom Stage): 6.5% | % Fruit Set 'Black Majesty' ([4]; 300 ppm ACC, Petal Fall Stage): 8% | % Fruit set 'Candy Stripe' ([4]; 300 ppm ACC, Petal Fall Stage): 5% | % Fruit Set (Avg) ([4]; 300 ppm ACC, Petal Fall Stage): 6.5% | % Fruit Set 'Black Majesty' ([4]; 300 ppm ACC, White Bud Stage): 4% | % Fruit set 'Candy Stripe' ([4]; 300 ppm ACC, White Bud Stage): 1% | % Fruit Set (Avg) ([4]; 300 ppm ACC, White Bud Stage): 2.5% | reduced fruit set on average over control ([4]; 300 ppm): 21.5% | % Fruit Set 'Black Majesty' ([4]; 450 ppm ACC, Full Bloom Stage): 9% | % Fruit set 'Candy Stripe' ([4]; 450 ppm ACC, Full Bloom Stage): 4% | % Fruit Set (Avg) ([4]; 450 ppm ACC, Full Bloom Stage): 6.5% | % Fruit Set 'Black Majesty' ([4]; 450 ppm ACC, Petal Fall Stage): 8% | % Fruit set 'Candy Stripe' ([4]; 450 ppm ACC, Petal Fall Stage): 3% | % Fruit Set (Avg) ([4]; 450 ppm ACC, Petal Fall Stage): 5.5% | % Fruit Set 'Black Majesty' ([4]; 450 ppm ACC, White Bud Stage): 5% | % Fruit set 'Candy Stripe' ([4]; 450 ppm ACC, White Bud Stage): 1% | % Fruit Set (Avg) ([4]; 450 ppm ACC, White Bud Stage): 3% | reduced fruit set on average over control ([4]; 450 ppm): 21%
